According to patent publication US20050008664A1, “Compositions and methods related to lipid:emodin formulations” (Board of Regents, The University of Texas System, priority 2002, published 2005):
pIC50: −log10 of the molar value.

How the values were obtained:
[1] = tested on: tetracycline regulatable 32D-P210 cell line; assay: MTT assay of cell growth, 3 day exposure to emodin; format: cell-based; settings: emodin solubilized in DMSO, MTT assay at 72 hours, read-out: IC 50, inhibition of cellular growth
Method: In Vitro: A tetracycline regulatable 32D-P210 cell line was cultured in RPMI 1640 with 10% FCS and 10% Wehi supernatant and cultured at 37° C. Emodin was solubilized in DMSO at a concentration of 0.4 M for in vitro assays. A concentration of 3×10^4 cells/ml were used in a 24 well plate for a 3 day exposure to emodin. Emodin was assayed at 60 μM, 30 μM, and 10 μM concentrations. At 72 hours, a MTT assay was performed to provide a colorometric analysis of cell growth.

[2] = tested on: leukemia; assay: In vivo study of alkaline emodin preparation in leukemia-injected C3H-HEJ mice
Method: In vivo: The mouse strain C3H-HEJ (8-10 weeks old) were used for in vivo studies. Emodin was prepared in an alkaline preparation at 10 mg/ml, and was administered to the animals via tail vein injections. One cohort of animals received a single dose of emodin equal to 43 mg/kg per animal. Two other cohorts received either two doses of drug, administered on consecutive days, or there doses of drug, administered on consecutive days. The total concentration of drug administered were 86 mg/kg and 129 mg/kg, respectively. Animals were followed until death, euthanized upon detection of illness, or euthanized at 100 days post leukemia injection.

Cc1cc(O)c2c(c1)C(=O)c1cc(O)cc(O)c1C2=O [emodin, 3-methyl-1,6, 8 trihydroxyanthra-quinone]
pIC50 [1]: ~5.00
tolerability of the preparation by the animal ([2]; alkaline preparation at pH 10, tail vein injection, some bruising of the tail noted): moderately well tolerated
lifespan of animals injected with leukemia ([2]; alkaline preparation, tail vein injections, 43, 86 or 129 mg/kg total, untreated 25 days, animals sacrificed at 100 days): 100 days
